Literature values, collected in article PMC9782211 (Microorganisms, 2022).

Test system: hERG channels
Conditions: cited from earlier work
Excerpt: Inhibition of the potassium current flowing through the cardiac hERG ion channel (Kv11.1) has been correlated to life threatening torsades de pointes cardiac arrhythmia. Effects on hERG channel currents have been observed for a number of drugs, including antihistamines, antipsychotics, and many other drugs from nearly all therapeutic areas and chemical classes, and have become a serious safety concern in drug discovery and development. Inhibition of hERG channel currents have also been reported for antibiotics, in particular for macrolides, raising concerns about the cardiac safety of a ...

**Q.** Which “block of hERG channels” value does the source give for BeKm-1 here?
**A.** high affinity
